Where two headings read alike, the source gives them in different places.
Assays:
[1] = tested on: AD brain-derived Tau PHF aggregates; assay: Micro-radiobinding direct binding on AD brain-derived Tau PHF; design: species or system human; conditions: tritiated compound 0.6 to 200 nM
Method: The enrichment procedure was modified from Jicha et al, 1997 and Rostagno and Ghiso, 2009. Briefly, around 15 g of the AD human brain were thawed on ice and homogenized with homogenization buffer (3 ml per gram of tissue) (0.75 M NaCl in RAB buffer (100 mM 2-(N-morpholino)ethanesulfonic acid (MES), 1 mM EGTA, 0.5 mM MgSO4, 2 mM DTT, pH 6.8) supplemented with protease inhibitors (Complete; Roche 693124001)) in a glass Dounce homogenizer. […]
PD brain-derived a-synuclein aggregates and AD brain-derived Tau PHF aggregates were spotted onto microarray slides. […] Quantification of signal was performed by using the image analysis software Beamage (ai4R). Non-specific signal was determined with an excess of non-radiolabelled compound (2 μM) and specific binding was calculated by subtracting the non-specific signal from the total signal. Competition was calculated as percentage, where 0% was defined as the specific binding in the presence of vehicle and 100% as the values obtained in the presence of excess of the non-radiolabelled a-syn reference compound. Ki values were calculated in GraphPad Prism7 by applying a nonlinear regression curve fit using a one site, specific binding model. […]

Abeta = target: T1, Abeta (Homo sapiens, UniProt P05067); assay: Radiobinding competition assay using Abeta reference compound on AD insoluble fraction of brain homogenates; type: binding; conditions: against [3H]Abeta reference compound
T1 construct: an AD donor with confirmed burden of Tau and Abeta aggregates; from tissue; host or cells: frontal cortex of a human AD donor, Triton/sucrose-insoluble fraction
T1 sequence (P05067 672-713 limits assumed): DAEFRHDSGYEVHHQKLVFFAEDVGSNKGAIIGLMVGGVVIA
Method: Approximately 4 g of frozen tissue block from frontal cortex brain region was used from an AD donor with confirmed burden of Tau and Abeta aggregates. The tissue was homogenized in three volumes (1:3 w/v) of high salt buffer (50 mM Tris-HCl pH 7.5, 750 mM NaCl, 5 mM EDTA) supplemented with protease inhibitors (Complete; Roche 11697498001) at 4° C. with a glass Dounce homogenizer. The homogenate was transferred into polycarbonate centrifuge bottles (16×76 mm; Beckman 355603) and centrifuged at 100,000×g (38,000 RPM) in an ultracentrifuge (Beckman, XL100K) for 60 minutes at 4° C. using a pre-cooled 70.1 rotor (Beckman, 342184). Pellets were resuspended in high salt buffer supplemented with 1% Triton X-100 and homogenized at 4° C. with a syringe. The homogenates were centrifuged again at 100,000×g (38,000 RPM, 70.1 rotor) for 60 minutes at 4° C. Pellets were resuspended in high salt buffer supplemented with 1% Triton X-100 and 1 M sucrose and homogenized at 4° C. with a syringe. The homogenates were centrifuged at 100,000×g (38,000 RPM, 70.1 rotor) for 60 minutes at 4° C. The resulting pellets containing insoluble fraction were resuspended in PBS (1:2 w/v relative to starting tissue weight), aliquoted and stored at −80° C. until use.
The reaction was performed in assay buffer (50 mM Tris pH 7.5 in 0.9% NaCl, 0.1% BSA) and incubated for two hours at room temperature (RT). Samples in duplicate were then filtered under vacuum in GF/C filter plates (PerkinElmer) to trap the aggregates with the bound radioligand and washed with 100 μL ice-cold 50 mM Tris pH 7.5. The GF/C filters were then dried and scintillation liquid (UltimateGold, PerkinElmer, 6013151) was added in each well. The filters were analyzed on a Microbeta2 scintillation counter (PerkinElmer). Values for the maximal signal were obtained in the absence of non-radiolabeled compound, while 100% displacement was obtained using 1 μM of non-radiolabeled reference compound. Ki values were calculated by nonlinear regression, using a one site—fit Ki model in Prism V7 (GraphPad).

[2] = cells printed in μM, read-out: Ki on AD brain homogenates

Direct binding in AD brain-derived Tau PHF aggregates [1] | Compound | Ki (Abeta; [2]) [µM] | Ki (Abeta; read-out: Ki (nM) on AD brain homogenates) [µM]
No significant binding | [3H]C([3H])(O)C1CCN(c2ccc(-c3nc4c(s3)C(=O)N(c3cccnc3)CC4)c(F)n2)CC1 [[^3H]-Compound 17, 2-(2-fluoro-6-(4-(hydroxymethyl-t2)piperidin-1-yl)pyridin-3-yl)-5-(pyridin-3-yl)-6,7-dihydrothiazolo[5,4-c]pyridin-4(5H)-one] | – | –
No significant binding | [3H]c1cncc(N2CCc3nc(-c4cc([3H])c(N5CC[C@@H](F)C5)nc4F)sc3C2=O)c1 [[^3H]-Compound 1, tritiated 2-[2-fluoro-6-[(3R)-3-fluoropyrrolidin-1-yl]-3-pyridyl]-5-(3-pyridyl)-6,7-dihydrothiazolo[5,4-c]pyridin-4-one] | – | –
– | O=C1c2sc(-c3ccc(N4CC[C@@H](F)C4)nc3F)nc2CCN1c1cccnc1 [Compound 1, 2-[2-fluoro-6-[(3R)-3-fluoropyrrolidin-1-yl]-3-pyridyl]-5-(3-pyridyl)-6,7-dihydrothiazolo[5,4-c]pyridin-4-one] | > 1 | > 1
– | O=C1c2sc(-c3ccc(N4CCC(CO)CC4)nc3F)nc2CCN1c1cccnc1 [Compound 17, 2-(2-fluoro-6-(4-(hydroxymethyl)piperidin-1-yl)pyridin-3-yl)-5-(pyridin-3-yl)-6,7-dihydrothiazolo[5,4-c]pyridin-4(5H)-one] | > 1 | –

Source: patent publication US20260103474A1, “NOVEL COMPOUNDS FOR THE DIAGNOSIS OF TDP-43 PROTEINOPATHIES” (AC IMMUNE SA, priority 2022, published 2026)
